Where two headings read alike, the source gives them in different places.
Experiments:
Type in all cases: biochemical
[1] = target: SAPK2a/p38 (Homo sapiens, UniProt Q16539); experiment: SAPK2a/p38 33P kinase assay; details: read-out: SAPK2a/p38 activity as percentage of control without inhibitor
Procedure: (§1) All assays (25.5 μl) were carried out at room temperature (21° C.) and were linear with respect to time and enzyme concentrations under the conditions used. Assays were performed for 30 minutes except assays for LCK and PKB which were performed for 15 minutes using Multidrop Micro reagent dispensers (Thermo Electron Corporation, Waltham, Mass. 02454, USA) in a 96-well format. The concentration of […] [γ-^33P] ATP (800 cpm/pmol) in the assays was one of three concentrations (5, 20 or 50 μM) in order to be at or below Km for ATP for the enzyme. Assays were initiated with MgATP and stopped by addition of 5 μl of 0.5M orthophosphoric acid. Assays were then harvested onto P81 filterplates using a unifilter harvester (PerkinElmer, Boston, Mass. 02118, USA), with a wash buffer of 50 mM orthophosphoric acid. Filterplates were then air dried overnight. 10 μl of Microscint O was added per well prior to counting for radioactivity.
(§2) MKK1, JNK/SAPK1c, SAPK2a/p38, SAPK2b/p38β2, SAPK3/p38γ, SAPK4/p38δ, MAPK2/ERK2, MAPKAP-K1β, MAPKAP-K2, MSK1, PRAK, PKA, PKCα, PDK1, SGK, p70S6K, GSK3β, ROCK-II, PRK2, AMPK, CHK1, CHK2, CK2, PHK, LCK, were assayed according to Davies et al., (Davies, S. P., Reddy, H., Caivano, M. and Cohen, P. Biochem. J. 351, 95-105, 2000.
(§3) CSK and CDK2/cyclinA, were assayed according to Bain et al. (Bain J, McLauchlan H, Elliott M, Cohen P. Biochem J. 371, 199-204, 2003., except that ATP concentrations were either 5, 20 or 50 micromolar so that they were at or below the Km for ATP. The ATP concentrations used were as follows, 5 μM for assays of MKK1, SAPK3, SAPK4, GSK3β, PRK2 CK2 20 μm for assays of JNK, SAPK2β, MAPKAP-K2, MSK1, PRAK, PKA, […], PDK1, SGK, p70S6K, ROCK-II, CHK1, CHK2, CSK, CDK2, and 50 μM for assays of SAPK2a, MAPK2/ERK2, AMPK, LCK, PHK and MAPKAP-K1β.

[2] = target: PKBb (Homo sapiens, UniProt P31751, S474D); experiment: PKBb 33P kinase assay; details: read-out: PKBb activity as percentage of control without inhibitor
Chain of PKBb (P31751 120-481 S474D limits assumed): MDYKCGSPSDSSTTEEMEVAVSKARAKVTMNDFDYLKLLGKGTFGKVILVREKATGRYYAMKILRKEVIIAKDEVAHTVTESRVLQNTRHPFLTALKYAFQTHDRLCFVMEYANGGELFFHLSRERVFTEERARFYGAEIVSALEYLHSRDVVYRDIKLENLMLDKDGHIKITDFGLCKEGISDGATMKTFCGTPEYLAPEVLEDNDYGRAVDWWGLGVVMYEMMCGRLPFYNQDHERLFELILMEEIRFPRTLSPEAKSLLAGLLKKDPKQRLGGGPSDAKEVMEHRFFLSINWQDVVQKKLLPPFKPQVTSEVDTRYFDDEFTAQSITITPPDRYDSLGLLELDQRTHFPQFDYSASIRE
Procedure: as §1
The following kinases were assayed against the substrates indicated. Aurora B was assayed against the substrate peptide […] (300 μM), ERK8 and MST-2 were both assayed against MBP (0.33 mg/ml). IKKβ was assayed against the substrate peptide […] (300 μM), JNK3 was assayed against 3 μM ATF2[19-96]. MAPKAP-K3 and PKD1 were both assayed against […] (30 μM), MARK3 was assayed against CHKtide ([…]) substrate peptide (300 μM). MNK1 and MNK2 were both assayed against eIF4E protein (0.5 mg/ml). NEK7 was assayed against […] (300 μM), PIM2 was assayed against […] (300 μM), ΔPH PKBβ-S474D was assayed against Crosstide (30 μM), PLK1 was assayed against […] (300 μM). PRK2 was assayed against Long S6 peptide, […] (30 μM), RSK2 was assayed against […] (30 μM), SRC was assayed against cdc2 peptide, […], (300 μM) and SRPK1 was assayed against peptide […] (300 μM). All enzymes were diluted in 50 mM Tris/HCl pH 7.5, 0.1 mM EGTA, 1 mg/ml BSA, 0.1% β-mercaptoethanol buffer and assayed in an incubation containing 50 mM Tris/HCl pH7.5, 0.1 mM EGTA, 0.1% β-mercaptoethanol, CAMK-1 (5-20 mU) diluted in 50 mM Tris/HCl pH 7.5, 0.1 mM EGTA, 1 mg/ml BSA, 0.1% β-mercaptoethanol is assayed against substrate peptide […] in an incubation containing 50 mM Tris/HCl pH 7.5, 0.1 mM EGTA, 0.5 mM CaCl2, 0.3 μM calmodulin, 0.1% β-mereaptoethanol, 300 μM substrate peptide, 10 mM magnesium acetate and 0.05 mM [^33P-γ-ATP] (500-1000 cpm/pmole). EF2K (5-20 mU) diluted in 50 mM Hepes pH 6.6, 0.1% β-mercaptoethanol, 1 mg/ml BSA is assayed against a substrate peptide […] in an incubation containing 50 mM Hepes pH 6.6, 0.2 mM CaCl2, 0.3 μM Calmodulin, 0.05% b-mercaptoethanol, 300 μM substrate peptide, 10 mM magnesium acetate and 0.05 mM [^33P-γ-ATP] (500-1000 cpm/pmole).
ΔPH-PKBbeta-S474D (5-20 mU diluted in 50 mM Tris pH 7.5, 0.1 mM EGTA, 0.1% β-mercaptoethanol, 1 mg/ml BSA) is assayed against a modified Crosstide peptide ([…]) in a final volume of 25.5 μl containing 50 mM Tris pH 7.5, 0.05% β-mercaptoethanol, 30 μM substrate peptide, 10 mM magnesium acetate and 0.05 mM [^33P- γATP] (50-1000 cpm/pmole) and incubated for 30 min at room temperature.

[3] = target: T1, CHK1 (Homo sapiens, UniProt O14757); experiment: CHK1 33P kinase assay; details: read-out: CHK1 activity as percentage of control without inhibitor
T1 sequence (O14757 1-476): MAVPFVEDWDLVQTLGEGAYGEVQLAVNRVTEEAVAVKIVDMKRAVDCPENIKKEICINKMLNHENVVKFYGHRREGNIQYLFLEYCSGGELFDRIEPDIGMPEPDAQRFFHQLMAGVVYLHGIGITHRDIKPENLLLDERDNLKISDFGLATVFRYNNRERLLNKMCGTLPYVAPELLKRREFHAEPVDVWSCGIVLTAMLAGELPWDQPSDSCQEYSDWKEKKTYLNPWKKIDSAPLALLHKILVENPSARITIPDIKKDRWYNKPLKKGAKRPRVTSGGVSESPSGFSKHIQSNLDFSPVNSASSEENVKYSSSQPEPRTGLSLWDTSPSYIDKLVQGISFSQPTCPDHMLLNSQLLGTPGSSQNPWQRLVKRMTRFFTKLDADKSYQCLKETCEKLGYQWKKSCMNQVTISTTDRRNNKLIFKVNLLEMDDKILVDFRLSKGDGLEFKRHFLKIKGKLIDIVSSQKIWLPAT
Procedure: as §1, §2, §3

Chain of SAPK2a/p38 (Q16539 whole entry): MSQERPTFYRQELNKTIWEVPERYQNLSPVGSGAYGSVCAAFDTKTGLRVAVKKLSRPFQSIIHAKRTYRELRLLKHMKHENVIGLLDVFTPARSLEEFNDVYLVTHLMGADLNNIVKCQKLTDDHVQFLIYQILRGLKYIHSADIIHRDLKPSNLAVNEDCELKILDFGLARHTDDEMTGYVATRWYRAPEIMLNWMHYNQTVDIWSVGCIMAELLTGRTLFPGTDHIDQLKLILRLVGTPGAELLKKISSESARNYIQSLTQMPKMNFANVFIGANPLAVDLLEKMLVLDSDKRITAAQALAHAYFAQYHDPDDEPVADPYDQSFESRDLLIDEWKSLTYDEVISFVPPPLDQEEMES

| SMILES | remaining activity at 1 µM [1] [%] | remaining activity at 10 µM [1] [%] | remaining activity at 1 µM ([2]; inhibitor 1 μM) [%] | remaining activity at 10 µM ([2]; inhibitor 10 μM) [%] | remaining activity at 1 µM [3] [%] | remaining activity at 10 µM [3] [%] | remaining activity at 1 µM ([1]; inhibitor 1 μM) [%] | remaining activity at 10 µM ([1]; inhibitor 10 μM) [%] | remaining activity at 1 µM ([3]; inhibitor 1 μM) [%] | remaining activity at 10 µM ([3]; inhibitor 10 μM) [%] | remaining activity at 1 µM [2] [%] | remaining activity at 10 µM [2] [%] |
| --- | --- | --- | --- | --- | --- | --- | --- | --- | --- | --- | --- | --- |
| COc1ccc2c3c([nH]c2c1)C(C)=NCC3 [Harmaline] | 89 | 86 | 97 | 96 | 78 | 67 |  |  |  |  |  |  |
| CC1=NCCc2c1[nH]c1cc(O)ccc21 [Harmalol] |  |  | 103 | 77 |  |  | 95 | 74 | 93 | 81 |  |  |
| COc1ccc2c(c1)[nH]c1c(C)nccc12 [Harmine] | 95 | 81 |  |  | 86 | 86 |  |  |  |  | 94 | 101 |
